# In PubChem BioAssay (NCI):
#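 Protocol summary: plate cells (96-well), add compound at 5 concentrations, incubate 48 h, interpolate endpoints linearly. GI50 is the concentration that inhibits growth by half. TGI marks complete inhibition of growth.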
# What was measured:
# Assay in all cases: NCI-60 cell line screen, 48 h
# HT29 colon = test system: HT29 colon
# U251 CNS = test system: U251 CNS
# RPMI-8226 leukemia = test system: RPMI-8226 leukemia
# A549 NSCLC = test system: A549 NSCLC
# UACC-257 melanoma = test system: UACC-257 melanoma
# MALME-3M melanoma = test system: MALME-3M melanoma
# SK-MEL-5 melanoma = test system: SK-MEL-5 melanoma
# SK-MEL-28 melanoma = test system: SK-MEL-28 melanoma
# IGROV1 ovarian = test system: IGROV1 ovarian
# SK-MEL-2 melanoma = test system: SK-MEL-2 melanoma
# NCI-H226 lung = test system: NCI-H226 lung
# OVCAR-4 ovarian = test system: OVCAR-4 ovarian
# SF-268 CNS = test system: SF-268 CNS
# HL-60(TB) leukemia = test system: HL-60(TB) leukemia
# OVCAR-3 ovarian = test system: OVCAR-3 ovarian
# M14 melanoma = test system: M14 melanoma
# A498 renal = test system: A498 renal
# MCF7 breast = test system: MCF7 breast
# SK-OV-3 ovarian = test system: SK-OV-3 ovarian
# MOLT-4 leukemia = test system: MOLT-4 leukemia
# KM12 colon = test system: KM12 colon
# SNB-75 CNS = test system: SNB-75 CNS
# NCI-H460 lung = test system: NCI-H460 lung
# HCC-2998 colon = test system: HCC-2998 colon
# NCI-H522 lung = test system: NCI-H522 lung
# NCI/ADR-RES ovarian = test system: NCI/ADR-RES ovarian
# 786-0 renal = test system: 786-0 renal
# UO-31 renal = test system: UO-31 renal
# ACHN renal = test system: ACHN renal
# SF-295 CNS = test system: SF-295 CNS
# HCT-15 colon = test system: HCT-15 colon
# SF-539 CNS = test system: SF-539 CNS
# HOP-62 NSCLC = test system: HOP-62 NSCLC
# MDA-MB-468 breast = test system: MDA-MB-468 breast
# COLO 205 colon = test system: COLO 205 colon
# SN12C renal = test system: SN12C renal
# MDA-MB-231 breast = test system: MDA-MB-231 breast
# HOP-92 NSCLC = test system: HOP-92 NSCLC
# SW-620 colon = test system: SW-620 colon
# SNB-19 CNS = test system: SNB-19 CNS
# BT-549 breast = test system: BT-549 breast
# CCRF-CEM leukemia = test system: CCRF-CEM leukemia
# T-47D breast = test system: T-47D breast
# NCI-H23 lung = test system: NCI-H23 lung
# TK-10 renal = test system: TK-10 renal
# PC-3 prostate = test system: PC-3 prostate
# OVCAR-8 ovarian = test system: OVCAR-8 ovarian
# RXF 393 renal = test system: RXF 393 renal
# LOX IMVI melanoma = test system: LOX IMVI melanoma
# OVCAR-5 ovarian = test system: OVCAR-5 ovarian
# SR leukemia = test system: SR leukemia
# MDA-MB-435 = test system: MDA-MB-435
# EKVX NSCLC = test system: EKVX NSCLC
# HCT-116 colon = test system: HCT-116 colon
# HS 578T breast = test system: HS 578T breast
# UACC-62 melanoma = test system: UACC-62 melanoma
# DU-145 prostate = test system: DU-145 prostate
# CAKI-1 renal = test system: CAKI-1 renal
smiles,measurement,setting,value
O=C(NN1C(=O)/C(=C/C=C/c2ccc([N+](=O)[O-])o2)SC1=S)c1ccc([N+](=O)[O-])cc1,GI50,HT29 colon,225 nM
same,TGI,HT29 colon,513 nM
same,GI50,U251 CNS,381 nM
same,TGI,U251 CNS,1660 nM
same,GI50,RPMI-8226 leukemia,344 nM
same,TGI,RPMI-8226 leukemia,2110 nM
same,GI50,A549 NSCLC,1860 nM
same,TGI,A549 NSCLC,4090 nM
same,GI50,UACC-257 melanoma,1440 nM
same,TGI,UACC-257 melanoma,3210 nM
same,GI50,MALME-3M melanoma,181 nM
same,TGI,MALME-3M melanoma,377 nM
same,GI50,SK-MEL-5 melanoma,258 nM
same,TGI,SK-MEL-5 melanoma,760 nM
same,GI50,SK-MEL-28 melanoma,1100 nM
same,TGI,SK-MEL-28 melanoma,2400 nM
same,GI50,IGROV1 ovarian,601 nM
same,TGI,IGROV1 ovarian,1610 nM
same,GI50,SK-MEL-2 melanoma,239 nM
same,TGI,SK-MEL-2 melanoma,785 nM
same,GI50,NCI-H226 lung,548 nM
same,TGI,NCI-H226 lung,1620 nM
same,GI50,OVCAR-4 ovarian,1450 nM
same,TGI,OVCAR-4 ovarian,2900 nM
same,GI50,SF-268 CNS,1560 nM
same,TGI,SF-268 CNS,4450 nM
same,GI50,HL-60(TB) leukemia,1800 nM
same,TGI,HL-60(TB) leukemia,6810 nM
same,GI50,OVCAR-3 ovarian,491 nM
same,TGI,OVCAR-3 ovarian,1750 nM
same,GI50,M14 melanoma,189 nM
same,TGI,M14 melanoma,396 nM
same,GI50,A498 renal,3280 nM
same,TGI,A498 renal,10900 nM
same,GI50,MCF7 breast,363 nM
same,TGI,MCF7 breast,1690 nM
same,GI50,SK-OV-3 ovarian,1910 nM
same,TGI,SK-OV-3 ovarian,3810 nM
same,GI50,MOLT-4 leukemia,322 nM
same,TGI,MOLT-4 leukemia,1940 nM
same,GI50,KM12 colon,925 nM
same,TGI,KM12 colon,2420 nM
same,GI50,SNB-75 CNS,1250 nM
same,TGI,SNB-75 CNS,3380 nM
same,GI50,NCI-H460 lung,341 nM
same,TGI,NCI-H460 lung,1240 nM
same,GI50,HCC-2998 colon,389 nM
same,TGI,HCC-2998 colon,1290 nM
same,GI50,NCI-H522 lung,187 nM
same,TGI,NCI-H522 lung,376 nM
same,GI50,NCI/ADR-RES ovarian,765 nM
same,TGI,NCI/ADR-RES ovarian,3110 nM
same,GI50,786-0 renal,247 nM
same,TGI,786-0 renal,645 nM
same,GI50,UO-31 renal,1080 nM
same,TGI,UO-31 renal,2290 nM
same,GI50,ACHN renal,1030 nM
same,TGI,ACHN renal,2200 nM
same,GI50,SF-295 CNS,1700 nM
same,TGI,SF-295 CNS,3180 nM
same,GI50,HCT-15 colon,130 nM
same,TGI,HCT-15 colon,315 nM
same,GI50,SF-539 CNS,263 nM
same,TGI,SF-539 CNS,745 nM
same,GI50,HOP-62 NSCLC,771 nM
same,TGI,HOP-62 NSCLC,2130 nM
same,GI50,MDA-MB-468 breast,1310 nM
same,TGI,MDA-MB-468 breast,2790 nM
same,GI50,COLO 205 colon,301 nM
same,TGI,COLO 205 colon,826 nM
same,GI50,SN12C renal,175 nM
same,TGI,SN12C renal,390 nM
same,GI50,MDA-MB-231 breast,185 nM
same,TGI,MDA-MB-231 breast,368 nM
same,GI50,HOP-92 NSCLC,310 nM
same,TGI,HOP-92 NSCLC,1210 nM
same,GI50,SW-620 colon,188 nM
same,TGI,SW-620 colon,405 nM
same,GI50,SNB-19 CNS,1460 nM
same,TGI,SNB-19 CNS,2810 nM
same,GI50,BT-549 breast,189 nM
same,TGI,BT-549 breast,489 nM
same,GI50,CCRF-CEM leukemia,262 nM
same,TGI,CCRF-CEM leukemia,1050 nM
same,GI50,T-47D breast,1800 nM
same,TGI,T-47D breast,4400 nM
same,GI50,NCI-H23 lung,289 nM
same,TGI,NCI-H23 lung,916 nM
same,GI50,TK-10 renal,1580 nM
same,TGI,TK-10 renal,2970 nM
same,GI50,PC-3 prostate,1230 nM
same,TGI,PC-3 prostate,3200 nM
same,GI50,OVCAR-8 ovarian,266 nM
same,TGI,OVCAR-8 ovarian,964 nM
same,GI50,RXF 393 renal,521 nM
same,TGI,RXF 393 renal,1860 nM
same,GI50,LOX IMVI melanoma,213 nM
same,TGI,LOX IMVI melanoma,499 nM
same,GI50,OVCAR-5 ovarian,1440 nM
same,TGI,OVCAR-5 ovarian,2750 nM
same,GI50,SR leukemia,21.3 nM
same,TGI,SR leukemia,> 100000 nM
same,GI50,MDA-MB-435,243 nM
same,TGI,MDA-MB-435,633 nM
same,GI50,EKVX NSCLC,639 nM
same,TGI,EKVX NSCLC,1880 nM
same,GI50,HCT-116 colon,156 nM
same,TGI,HCT-116 colon,332 nM
same,GI50,HS 578T breast,1750 nM
same,TGI,HS 578T breast,5770 nM
same,GI50,UACC-62 melanoma,218 nM
same,TGI,UACC-62 melanoma,607 nM
same,GI50,DU-145 prostate,936 nM
same,TGI,DU-145 prostate,2290 nM
same,GI50,CAKI-1 renal,704 nM
same,TGI,CAKI-1 renal,1940 nM
